Experimental data as given in patent publication US6495528B1 (SmithKline Beecham Corporation, priority 1998, dated 2002).

Legend:
Type in all cases: cell-based
[1] = target: T1, human adenosine 2a receptor (Homo sapiens, UniProt P29274); assay: Agonist activity at adenosine 2a receptor, CHO cells with CRE-SPAP reporter (basal cAMP); conditions: CHO cells transfected with human A2a receptor; effect on basal cAMP via SPAP; ratio to NECA; minimum values (about 20% inactive impurity)
T1 construct: expressed in transfected cells; host or cells: Chinese hamster ovary (CHO) cells, also transfected with a CRE-SPAP reporter
T1 sequence (P29274 whole entry): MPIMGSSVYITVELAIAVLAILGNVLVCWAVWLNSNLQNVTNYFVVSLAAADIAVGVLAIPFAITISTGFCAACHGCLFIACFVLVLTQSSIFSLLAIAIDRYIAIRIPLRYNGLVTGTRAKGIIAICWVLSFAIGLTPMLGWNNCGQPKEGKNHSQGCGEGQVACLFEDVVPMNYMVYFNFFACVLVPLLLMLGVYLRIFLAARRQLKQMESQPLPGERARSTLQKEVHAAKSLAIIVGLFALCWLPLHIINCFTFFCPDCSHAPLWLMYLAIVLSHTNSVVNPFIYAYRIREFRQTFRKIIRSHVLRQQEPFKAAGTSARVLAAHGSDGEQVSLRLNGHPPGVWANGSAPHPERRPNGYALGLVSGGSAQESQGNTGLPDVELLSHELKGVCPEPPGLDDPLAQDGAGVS
Description: (§1) (1) Agonist activity against adenosine 2a, adenosine 1 and adenosine 3 receptor subtypes.
(§2) Agonist selectivity of compounds against other human adenosine receptors is determined using Chinese hamster ovary (CHO) cells transfected with the gene for the relevant human adenosine receptor following a method based on that of Castanon and Spevak, 1994. The CHO cells are also transfected with cyclic AMP response elements promoting the gene for secreted placental alkaline phosphatase (SPAP) (Wood, 1995). The effect of test compounds is determined by their effects on basal levels of cAMP (A2a ) or on forskolin-enhanced cAMP (A1 and A3) as reflected by changes in levels of SPAP. EC50 values for compounds are then determined as a ratio to that of the non-selective agonist N-ethyl carboxamide adenosine (NECA).

[2] = target: T2, human adenosine 1 receptor (Homo sapiens, UniProt P30542); assay: Agonist activity at adenosine 1 receptor, CHO cells with CRE-SPAP reporter (forskolin-enhanced cAMP); conditions: CHO cells transfected with human A1 receptor; effect on forskolin-enhanced cAMP via SPAP; ratio to NECA; minimum values (about 20% inactive impurity)
T2 construct: expressed in transfected cells; host or cells: Chinese hamster ovary (CHO) cells, also transfected with a CRE-SPAP reporter
T2 sequence (P30542 1-326): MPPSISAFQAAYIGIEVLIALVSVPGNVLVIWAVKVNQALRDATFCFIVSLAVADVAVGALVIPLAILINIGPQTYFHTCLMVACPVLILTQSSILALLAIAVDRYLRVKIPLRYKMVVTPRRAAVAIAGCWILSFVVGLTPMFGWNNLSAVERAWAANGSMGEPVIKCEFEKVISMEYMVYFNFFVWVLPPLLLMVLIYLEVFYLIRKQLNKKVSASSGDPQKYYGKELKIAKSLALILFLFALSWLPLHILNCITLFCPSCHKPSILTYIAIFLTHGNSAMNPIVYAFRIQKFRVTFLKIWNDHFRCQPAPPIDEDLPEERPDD
Description: as §1, §2

[3] = target: T3, human adenosine 3 receptor (Homo sapiens, UniProt P0DMS8); assay: Agonist activity at adenosine 3 receptor, CHO cells with CRE-SPAP reporter (forskolin-enhanced cAMP); conditions: CHO cells transfected with human A3 receptor; effect on forskolin-enhanced cAMP via SPAP; ratio to NECA; minimum values (about 20% inactive impurity)
T3 construct: expressed in transfected cells; host or cells: Chinese hamster ovary (CHO) cells, also transfected with a CRE-SPAP reporter
T3 sequence (P0DMS8 1-318): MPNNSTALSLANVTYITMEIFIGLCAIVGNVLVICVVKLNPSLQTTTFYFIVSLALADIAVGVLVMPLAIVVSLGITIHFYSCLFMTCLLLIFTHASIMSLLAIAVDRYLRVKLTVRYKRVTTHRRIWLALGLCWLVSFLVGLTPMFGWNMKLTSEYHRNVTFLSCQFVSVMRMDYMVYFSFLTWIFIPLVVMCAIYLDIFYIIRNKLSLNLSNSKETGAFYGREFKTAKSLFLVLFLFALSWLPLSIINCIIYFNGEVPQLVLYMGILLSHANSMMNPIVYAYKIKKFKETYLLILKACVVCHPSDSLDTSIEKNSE
Description: as §1, §2

A2a EC50 as a ratio of that of NECA [1] | A1 EC50 as a ratio of that of NECA [2] | A3 EC50 as a ratio of that of NECA [3] | SMILES
22.64 | 434.8 | >93 | OCCCn1nnc(C2OC(n3cnc4c(NCC(c5ccccc5)c5ccccc5)nc(NCCN5CCCCC5)nc43)C(O)C2O)n1 [Example 1, 2R,3R,4S,5R)-2-[6-(2,2-Diphenyl-ethylamino)-2-(2-piperidin-1-yl-ethylamino)-purin-9-yl]-5-[2-(3-hydroxy-propyl)-2H-tetrazol-5-yl]-tetrahydro-furan-3,4-diol bis(trifluoroacetate)]
10.54 | 159.5 | >94 | OCCn1nnc(C2OC(n3cnc4c(NCC(c5ccccc5)c5ccccc5)nc(NCCN5CCCCC5)nc43)C(O)C2O)n1 [Example 5, (2R,3R,4S,5R)-2-[6-(2,2-Diphenyl-ethylamino)-2-(2-piperidin-1-yl-ethylamino)-purin-9-yl]-5-[2-(2-hydroxy-ethyl)-2H-tetrazo-5-yl]-tetrahydro-furan-3,4-diol bis(trifluoroacetate)]
30.95 | 755.4 | >93 | CCCn1nnc(C2OC(n3cnc4c(NCC(c5ccccc5)c5ccccc5)nc(NCCN5CCCCC5)nc43)C(O)C2O)n1 [Example 2, 2R,3R,4S,5R)-2-[6-(2,2-Diphenyl-ethylamino)-2-(2-piperidin-1-yl-ethylamino)-purin-9-yl]-5-(2-propyl-2H-tetrazo-5-tetrahydro-furan-3,4-diol bis(trifluoroacetate)]
26.38 | >6131 | >165 | C=CCn1nnc(C2OC(n3cnc4c(NCC(c5ccccc5)c5ccccc5)nc(NCCN5CCCCC5)nc43)C(O)C2O)n1 [Example 8, (2R,3S,4R,5R)-2-(2-Allyl 2H-tetrazol-5-[6-(2,2-diphenyl-ethylamino)-2-(2-piperidin-1-yl-ethylamino)-purin-9-yl]-tetrahydro-furan-3,4-diolbis(trifluoroacetate)]
16.59 | 310.5 | >93 | CC(=O)OCCn1nnc(C2OC(n3cnc4c(NCC(c5ccccc5)c5ccccc5)nc(NCCN5CCCCC5)nc43)C(O)C2O)n1 (stereo not drawn) [Example 3, Acetic acid 2-(5-{5R-[6-(2,2-diphenyl-ethylamino)-2-(2-piperidin-1-yl-ethylamino)-purin-9-yl]-3S,4R-dihydroxy-tetrahydro-furan-2R -yl}-tetrazol-2-yl)-ethyl ester bis(trifluoroacetate)]

SMILES | A2a EC50 as a ratio of that of NECA [1] | A1 EC50 as a ratio of that of NECA [2] | A3 EC50 as a ratio of that of NECA [3]
O=C(O)C(F)(F)F.O=C(O)C(F)(F)F.O[C@@H]1[C@H](O)[C@@H](c2nnn(CCCl)n2)O[C@H]1n1cnc2c(NCC(c3ccccc3)c3ccccc3)nc(NCCN3CCCCC3)nc21 [Example 6] | 24.05 | 411.9 | >97
O=C(O)C(F)(F)F.O=C(O)C(F)(F)F.O[C@@H]1[C@H](O)[C@@H](c2nnn(CC3CC3)n2)O[C@H]1n1cnc2c(NCC(c3ccccc3)c3ccccc3)nc(NCCN3CCCCC3)nc21 [Example 4] | 37.24 | 1318.09 | >93
O=C(O)C(F)(F)F.O=C(O)C(F)(F)F.O[C@@H]1[C@H](O)[C@@H](c2nnn(C3CCC3)n2)O[C@H]1n1cnc2c(NCC(c3ccccc3)c3ccccc3)nc(NCCN3CCCCC3)nc21 [Example 7] | 22.98 | 597.82 | >95
